In assay [1] the test system is H-1975 non-small cell lung carcinoma cell line. To be noted: 5 μM, 3 days.
Method: H-1975 non-small cell lung carcinoma cell line was grown in DMEM with 10% heat-inactivated fetal bovine serum with 100 units/mL penicillin, 100 μg/ml streptomycin and 2 mmol/L L-glutamine. Cells were re-seeded one day before treatments. Cells were treated with 5 μM GO-200-2B for 3 days and cell viability was determined by trypan blue exclusion. Y-axis represents percent viability as compared to control untreated cells.
H1975 non-small cell lung carcinoma cells were treated with 5 μM of different MUC1-CD CQC-region peptides for 6 days. Viable cell number on day 6 was determined by trypan blue exclusion. […] Y-axis represents relative growth as compared to control untreated cells.
Moreover, another non-small cell lung carcinoma cell line, H-1975, was treated with 5 μM GO-200-2B for 3 days and monitored for cell growth as well as cell death.
Multiple tumor cell lines (ZR-75-1 Hormone-dependent Breast Carcinoma; MDA-MB-231 Triple-Negative Breast Carcinoma; A549 Non-small Cell Lung Carcinoma; H-1975 Non-small Cell Lung Carcinoma) were grown in RPMI-1640 supplemented with 10% heat-inactivated fetal bovine serum, 100 units/mL penicillin and 100 μg/mL streptomycin and 2 mmol/L L-glutamine. […] The proliferation of different cell lines was compared with cells treated with vehicle only.
A further assay concerns ZR-75-1 cells. Kind of assay: In vitro cytotoxicity and combination assays (MTS, CombiTool combination index). The assay is classed as cell-based, human. Here is the method: FIGS. 15A-D. Effects of GO-203 in combination with different anti-cancer drugs. ZR-75-1 cells were exposed to the indicated concentrations of Cisplatin (FIG. 15A), Doxorubicin (FIG. 15B), rh-TNF-α (FIG. 15C) and Taxol (FIG. 15D) alone and in combination with GO-203. The treatment was sequential for Cisplatin, Doxorubicin and Taxol where cells were exposed to these agents for 72 h followed by treatment with 5 μM of GO-203 for 72 h. In studies with rh-TNF, cells were exposed concomitantly to different concentrations of rh-TNF alone and in combination with 5 μM of GO-203 for 72 h. The MTS assay was used to determine the cell survival. For all panels, the Y-axis represents percent growth as compared to control untreated cells.
FIG. 16. GO-203 is additive or synergistic with anti-cancer agents. The plots show combination indexes against different effect levels (fraction affected). The effect level was obtained by treating cells with the indicated combinations of anti-cancer drugs and GO-203. Y-axis represents—fold growth as compared to control untreated cells.
Cells were seeded in a 96-well flat-bottomed microtiter plate (Fisher) at 1000 cells per well for a 6-day experiment or at 3000 cells per well for a 3-day experiment. The cells were then cultured for 24 h. Anti-cancer drugs and GO-203 were diluted to the indicated concentrations and added to the cells. GO-203 (5 μmol/L) was added every 24 h for 72 h. Cell viability was determined by adding MTS reagent to the cells and reading the absorbance at 490 nm by a microplate reader.
The IC50 values for all the anti-cancer drugs were determined by non-linear regression analysis using Graphpad Prism (GraphPad Software, San Diego Calif.). The CombiTool computer program (version 2.001, IMB Jena Biocomputing Group) was used to calculate the combination index within a dose range in the presence of 5 μmol/L GO-203.
The combination index (CI) values generated by the CombiTool program were plotted against the fraction affected by the drug combination. The CI values were close to 1 for Cisplatin and GO-203, indicating an additive interaction. The CI values obtained for Doxorubicin (25, 50, 100, 200 nM), Taxol (25, 50, 100 nM) and TNF (10, 20, 40 ng/ml) with GO-203 were less than 1, supporting a strong additive effect or synergism (FIGS. 15A-D and 16).

Assay [2] deals with ZR-75-1 breast carcinoma cells. Kind of assay: ZR-75-1 proliferation with GO-203 analogs (trypan blue exclusion). The format is cell-based, human. Conditions: 5 μM every day for 4 days. Here is the method: FIG. 10. Effect of different MUC1-CD CQC-region peptides on the growth of hormone-dependent breast carcinoma cells. To determine whether exposure to different MUC1-CD CQC-region containing peptides affect growth, ZR-75-1 breast carcinoma cells were treated with 5 μM of different peptides for 4 days and monitored for cell proliferation. […] Y-axis represents percent growth inhibition as compared to control untreated cells.
FIG. 14. Effect of Shorter GO-203 peptides on proliferation of ZR-75-1 Breast Cancer Cells. Human ZR-75-1 breast cancer cells were grown in RPMI1640 supplemented with 10% heat-inactivated fetal bovine serum, 100 units/ml penicillin, 100 μg/ml streptomycin. Cells were treated with different peptides at 5 μM every day for four days and cell viability was determined by trypan blue exclusion.
Multiple tumor cell lines (ZR-75-1 Hormone-dependent Breast Carcinoma; MDA-MB-231 Triple-Negative Breast Carcinoma; A549 Non-small Cell Lung Carcinoma; H-1975 Non-small Cell Lung Carcinoma) were grown in RPMI-1640 supplemented with 10% heat-inactivated fetal bovine serum, 100 units/mL penicillin and 100 μg/mL streptomycin and 2 mmol/L L-glutamine. Cells were treated separately with 5 μM of different analogs of GO-203 (FIG. 8) for 3 to 7 days and viability was determined by trypan blue exclusion. The proliferation of different cell lines was compared with cells treated with vehicle only.

In another assay the target is T1, His-MUC1-CD (Homo sapiens, UniProt P15941).
T1 sequence (P15941 1184-1255): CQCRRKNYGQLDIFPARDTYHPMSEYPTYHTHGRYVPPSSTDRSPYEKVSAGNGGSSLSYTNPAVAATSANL
To be noted: BIAcore analysis, Leng et al., 2007; read-out: dissociation constant (Kd) of MUC1-CD dimers; cited from earlier work.

The subject of assay [3] is multiple carcinoma cell lines. As to the kind of experiment: Inventors' recent studies of MUC1 C-terminal peptides on carcinoma cell lines. Conditions: L-amino acid peptide. The assay is classed as cell-based. From the text:
However, these MUC1-C-terminal peptides consists of L-amino acids. […] Consequently, they have generated an all-dextro form of the above described shorter MUC1 C-terminal peptide, in which the L-amino acids were changed to D-amino acids (GO-203). Moreover, to determine the minimum amino acid residues from the MUC1-C-terminal region that are required to retain the cell killing activity, they have also generated many different versions of GO-203 as described in FIG. 8.

Assay [4] relates to DU145 prostate carcinoma cells. As to the kind of experiment: DU145 cell growth by MTT assay. The assay is classed as cell-based. To be noted: 5 μM, 4 days (FIG. 7). Here is the method: FIG. 7. MUC1 7-mer inhibits prostate carcinoma. DU145 prostate carcinoma cells were treated with 5 μM CQC short (7-mer; SEQ ID NO: 53) or 5 μM CQC long (15-mer; SEQ ID NO: 63) peptides for 4 days. Cell growth was measured by MTT assay. The Y-axis represents percent growth inhibition compared to untreated cells (control).

Where no end group is shown, it is not given here. [ ]: non-standard residue; d: D form.

Turning to `CC(=O)N[C@@H](C)C(=O)N[C@@H](CCCCN)C(=O)N[C@@H](CCCCN)C(=O)N[C@@H](Cc1ccc(O)cc1)C(=O)N[C@@H](CC(C)C)C(=O)N[C@@]1(C)CCCC=CCCCC2(CCCC=CCCC[C@@](C)(C(=O)N[C@@H](CCCNC(=N)N)C(=O)N[C@@H](CCCCN)C(=O)N[C@@H](CC(N)=O)C(=O)N[C@@H](Cc3ccc(O)cc3)C(N)=O)NC(=O)[C@H](CS)NC(=O)[C@H](CCC(N)=O)NC(=O)[C@H](CS)NC2=O)NC(=O)[C@H](C)NC(=O)[C@H](CC(C)C)NC(=O)[C@H](C)NC1=O` (stereo partly drawn) [GO-200-2B], in assay [1], the cell death entry is reported as “significant induction of cell death”.

As for “GO-203: all-dextro form of the shorter MUC1 C-terminal peptide CQCRRKN (SEQ ID NO:53) ([dC][dQ][dC][dR][dR][dK][dN]; cysteine pairing not given here)”, the “combination index (CI) with Cisplatin” value in the assay on ZR-75-1 cells (Cisplatin 72 h followed by 5 μM GO-203 for 72 h) is on record as around 1. Besides, the “combination index (CI) with Doxorubicin” value in the assay with ZR-75-1 cells (Doxorubicin 25, 50, 100, 200 nM, followed by 5 μM GO-203) is given as “less than 1”. In addition, in the assay with ZR-75-1 cells (Taxol 25, 50, 100 nM, followed by 5 μM GO-203), the “combination index (CI) with Taxol” value was “less than 1”. The “combination index (CI) with TNF” value in the assay on ZR-75-1 cells (rh-TNF 10, 20, 40 ng/ml concomitantly with 5 μM GO-203 for 72 h) is “less than 1”. For the same compound, the “growth of ZR-75-1 cells” value in assay [2] is listed as “significant inhibition of growth”.

Regarding “GO-207: shorter GO-203 peptide, SEQ ID NO:4 (CQCRRK)”, the “growth of ZR-75-1 cells” value in assay [2] is on record as “significant inhibition of growth”.

On to “GO-208: shorter GO-203 peptide, SEQ ID NO:50 (CQCRR)”, for which the “growth of ZR-75-1 cells” value in assay [2] is on record as “significant inhibition of growth”.

As to “GO-209: shorter GO-203 peptide, SEQ ID NO:54 (CQCR)”, the “growth of ZR-75-1 cells” value in assay [2] is “significant inhibition of growth”.

Turning to “MUC1-CD: 72-amino acid MUC1 cytoplasmic domain (SEQ ID NO:1); forms dimers”, the Kd with His-MUC1-CD is 0.033 µM.

Take “MUC1/CQC 7-mer: shorter MUC1-C-terminal peptide CQCRRKN of L-amino acids (7-mer; SEQ ID NO: 53)”: in assay [3], the “killing of tumor cells” value is “active in killing tumor cells”. Besides, the “in vitro activity relative to the 15-mer” value in assay [4] is reported as “as potent as the MUC1/CQC 15-mer”.

What is called Kd is the equilibrium constant for the complex coming apart.

The values are drawn from patent US9546201B2, “MUC-1 cytoplasmic domain peptides as inhibitors of cancer” (DANA-FARBER CANCER INSTITUTE, INC., priority 2008, dated 2017).
